Measured values as given in ChEMBL document CHEMBL5725290, “IRE-1α inhibitors” (2017).

target: Serine/threonine-protein kinase/endoribonuclease IRE1 (Homo sapiens, UniProt O75460); experiment: IRE-1alpha Assay: A fusion protein comprising glutathione S transferase (GST) and human IRE-1α (GST-IRE-1α) obtained from a 500 ml baculovirus-infected insect cell culture can be used to measure IRE-1α activity in vitro. Five μl of a reaction mixture comprising 1× reaction buffer (5× reaction buffer is 100 mM Hepes pH 7.5, 250 mM KOAc, 2.5 mM MgCl2), 3 mM DTT, and 0.4% polyethylene glycol water is added to each well of 384 well plates. Twenty-five nanoliters of a 1 mM test compound solution are added to test wells. Three μl of a 128 ng/ml IRE-1α preparation are added to each test well and to positive control wells (final concentration 5.82 ng/well). Negative control wells contain only reaction mixture and test compound. After spinning the plates at 1200 rpm for 30 seconds, 3 μl of an IRE-1α human mini-XBP-1 mRNA stem-loop substrate 5'-[…]-3' (SEQ ID NO:1), labeled with the fluorescent dye Cy5 at the 5' end and Black Hole Quencher 2 (BH2) at the 3' end, are added to each well of a control plate. The plates are again spun at 1200 rpm for 30 seconds. Final concentrations for the assay are: 63 nM IRE-1α substrate, 5.82 ng IRE-1α protein, and 2.5 μM test compound. The plates are covered with lids and incubated for one hour at 30° C. The plates are then transferred to an ACQUEST™ microplate reader. Data is analyzed using data analysis software, and the percent activity of IRE-1α is calculated.
Sequence (O75460 whole entry, the tested form may be a part): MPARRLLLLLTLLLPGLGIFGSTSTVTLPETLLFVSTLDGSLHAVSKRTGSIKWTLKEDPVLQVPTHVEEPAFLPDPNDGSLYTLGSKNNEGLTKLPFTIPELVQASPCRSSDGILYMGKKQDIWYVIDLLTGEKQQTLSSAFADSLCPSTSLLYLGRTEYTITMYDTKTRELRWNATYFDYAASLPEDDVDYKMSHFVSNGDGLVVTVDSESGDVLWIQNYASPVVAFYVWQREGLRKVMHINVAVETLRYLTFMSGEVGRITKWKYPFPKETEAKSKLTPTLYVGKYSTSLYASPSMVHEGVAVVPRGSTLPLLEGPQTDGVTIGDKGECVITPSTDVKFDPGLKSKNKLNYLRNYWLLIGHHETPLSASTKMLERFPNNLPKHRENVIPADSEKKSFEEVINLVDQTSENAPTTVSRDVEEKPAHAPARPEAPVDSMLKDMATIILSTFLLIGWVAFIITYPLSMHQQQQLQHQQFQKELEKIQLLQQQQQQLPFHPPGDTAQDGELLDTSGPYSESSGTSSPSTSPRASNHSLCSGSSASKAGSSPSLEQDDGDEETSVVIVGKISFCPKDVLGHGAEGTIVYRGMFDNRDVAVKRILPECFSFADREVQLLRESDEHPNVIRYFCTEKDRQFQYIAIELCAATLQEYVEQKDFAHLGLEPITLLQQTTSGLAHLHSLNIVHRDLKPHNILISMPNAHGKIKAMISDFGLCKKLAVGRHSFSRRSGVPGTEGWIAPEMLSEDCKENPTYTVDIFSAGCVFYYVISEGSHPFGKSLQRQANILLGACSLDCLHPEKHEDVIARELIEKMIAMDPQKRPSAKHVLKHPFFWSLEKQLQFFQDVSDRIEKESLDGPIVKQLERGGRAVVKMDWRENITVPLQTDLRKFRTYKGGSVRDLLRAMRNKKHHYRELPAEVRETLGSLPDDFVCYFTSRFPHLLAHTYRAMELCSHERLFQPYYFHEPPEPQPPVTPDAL

EC50 [µM] | Compound
> 10 | CC1CCN(C(=O)c2ccc(-c3ccc4c(C=O)c(O)ccc4n3)cc2)CC1
> 10 | CN1CCN(C(=O)c2ccc(-c3nc4ccc(O)c(C=O)c4[nH]3)cc2)CC1
> 10 | Cc1c(Cc2ccccc2)c(=O)oc2c(C=O)c(O)c(O)cc12
< 10 | O=Cc1c(O)ccc2nc(-c3cccc(C(=O)N4CCOCC4)c3)ccc12
> 10 | Cc1nc(N2CCc3c(ccc(O)c3C=O)C2)sc1C(=O)N1CCOCC1
> 10 | CCN(CC)CCc1c(C)c2ccc(O)c(C=O)c2oc1=O
< 10 | Cc1cc(=O)oc2c(C=O)c(O)c(F)cc12
< 10 | COc1cc2c(C)c(Br)c(=O)oc2c(C=O)c1O
> 10 | O=Cc1c(O)ccc2nc(-c3ccc(C(=O)O)cc3)[nH]c12
> 10 | COC(=O)c1ccc(-c2nc3ccc(O)c(C=O)c3[nH]2)cc1
> 10 | CC(C)N1CCN(c2nc3ccc(O)c(C=O)c3s2)CC1
> 10 | Cc1c(-c2cccc(C(=O)N3CCCC3)c2)c(=O)oc2c(C=O)c(O)ccc12
< 10 | O=Cc1c(O)ccc2nc(-c3ccc(C(=O)N4CCCC4)cc3)ccc12
< 10 | Cc1c(Br)c(=O)oc2c(C=O)c(O)ccc12
> 10 | O=Cc1c(O)ccc2nc(-c3ccc(C(=O)NCCN4CCOCC4)cc3)[nH]c12
< 10 | Cc1c(CCC(=O)N2CCOCC2)c(=O)oc2c(C=O)c(O)ccc12
> 10 | O=Cc1c(O)ccc2cc(-c3ccc(Br)cc3)c(=O)oc12
< 10 | Cc1c(-c2ccc(C(=O)N3CCCC3)cc2)c(=O)oc2c(C=O)c(O)ccc12
< 10 | O=Cc1c(O)ccc2nc(N3CCC(NC(=O)CN4CCOCC4)C3)ccc12 (stereo not given)
> 10 | CC1CCN(C(=O)c2ccc(-c3nc4ccc(O)c(C=O)c4s3)cc2)CC1
< 10 | Cc1c(Br)c(=O)oc2c(C=O)c(O)c(F)cc12
< 10 | Cc1c(-c2ccc(C(=O)N3CCC(C)CC3)cc2)c(=O)oc2c(C=O)c(O)ccc12
< 10 | Cc1c(-c2cccc(C(=O)N3CCOCC3)c2)c(=O)oc2c(C=O)c(O)ccc12
> 10 | O=Cc1c(O)ccc2nc(-c3ccc(C(=O)N4CCOCC4)cc3)[nH]c12
< 10 | CC(=O)NC1CCN(c2ccc3c(C=O)c(O)ccc3n2)C1 (stereo not given)
> 10 | CN1CCN(C(=O)c2ccc(-c3nc4ccc(O)c(C=O)c4s3)s2)CC1
< 10 | Cc1c(-c2ccc(C(=O)N3CCN(C)CC3)cc2)c(=O)oc2c(C=O)c(O)ccc12
< 10 | COc1cc2c(C)c(-c3ccc(C(=O)N4CCOCC4)cc3)c(=O)oc2c(C=O)c1O
< 10 | Cc1c(-c2ccc(N3CCN(C)CC3)cc2)c(=O)oc2c(C=O)c(O)c(F)cc12
> 10 | CN1CCN(C2CCN(c3nc4ccc(O)c(C=O)c4s3)C2)CC1 (stereo not given)
